Laboratory results from ChEMBL document CHEMBL1201862, “PubChem BioAssay data set” (2004).
Where a name gives a salt, the structure may show the parent alone.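 Test compounds were applied to cells in 96-well plates for 48 hours at 5 doses. The concentration for 50% growth inhibition is given as GI50.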 Calls of active or inactive are those of the source. Cut-off read from the data, not from the text of the source: active = GI50 up to about 1.1 µM and inactive = higher.

Tests used:
Assay in all cases: inhibition of tumour cell growth, NCI panel, 48 h
Hs-578T = test system: Hs-578T
MDA-MB-231 = test system: MDA-MB-231
DMS-114 = test system: DMS-114
HOP-18 = test system: HOP-18
LXFL 529 = test system: LXFL 529
M19-MEL = test system: M19-MEL
DLD-1 = test system: DLD-1
XF498 = test system: XF498

| Compound | GI50 (Hs-578T) | GI50 (MDA-MB-231) | GI50 (HOP-18) | GI50 (M19-MEL) | GI50 (DLD-1) | further results |
| --- | --- | --- | --- | --- | --- | --- |
| COc1cc(C(=O)C2CC3(CCC2(O)c2cc(OC)c(OC)c(OC)c2)CC(=O)Nc2ccccc2C3=O)cc(OC)c1OC (configuration not stated) | 91 µM (inactive) | > 100 µM (inactive) | – | – | – | – |
| O=C1C(=C2CCCC2)CCC1CN1CCCCC1 (configuration not stated) | – | – | 15.3 µM (inactive) | 32.4 µM (inactive) | – | GI50 (DMS-114): 17.5 µM (inactive); GI50 (LXFL 529): 13.2 µM (inactive) |
| C=CC1=C(C)c2cc3[nH]c(c4c5nc(cc6[nH]c(cc1n2)c(C)c6CC)C=C5C(=O)C4C(=O)OC)C(CCC(=O)OC/C=C(\C)CCCC(C)CCCC(C)CCCC(C)C)C3C.C=CC1=C(C)c2cc3[nH]c(c4c5nc(cc6[nH]c(cc1n2)c(C=O)c6CC)C=C5C(=O)C4C(=O)OC)C(CCC(=O)OC/C=C(\C)CCCC(C)CCCC(C)CCCC(C)C)C3C (configuration not stated) | > 100 µM (inactive) | > 100 µM (inactive) | – | – | – | – |
| CC(C)=CCc1c(O)c(CC2=C(O)C(CC=C(C)C)(C(=O)C(C)C)C(O)=C(C)C2=O)c(O)c(C(=O)C(C)C)c1O (configuration not stated) | 9.89 µM (inactive) | 17 µM (inactive) | – | – | – | – |
| CCn1c(=O)c(C(=O)O)c(Cl)c2cc3c(cc21)OCO3 | – | – | > 100 µM (inactive) | > 100 µM (inactive) | > 100 µM (inactive) | GI50 (XF498): > 100 µM (inactive) |
| CN1c2ccccc2SC2C(c3ccccc3)=NOC21 (configuration not stated) | 29 µM (inactive) | 27 µM (inactive) | – | – | – | – |
| COc1ccc2c(c1)Cc1c(NCCN(C)C)ccc(C(=O)NCCCN(C)CCCNC(=O)c3ccc(NCCN(C)C)c4c3Nc3ccc(OC)cc3C4)c1N2 | < 0.01 µM (active) | 0.0322 µM (active) | – | – | – | – |
| CC1CC(C)(O)C2C3(C)CCCC2(COC3=O)C12CCC1(CCOC1=O)O2 (configuration not stated) | – | – | > 250 µM (inactive) | > 250 µM (inactive) | > 250 µM (inactive) | GI50 (DMS-114): > 250 µM (inactive); GI50 (XF498): 38.3 µM (inactive) |
| COc1ccc(C(=O)C(C(=O)C(=O)NC2C3CC4CC(C3)CC2C4)c2ccc(OC)cc2)cc1 (configuration not stated) | – | – | > 100 µM (inactive) | > 100 µM (inactive) | > 100 µM (inactive) | GI50 (DMS-114): > 100 µM (inactive); GI50 (LXFL 529): > 100 µM (inactive) |
| O=C(CCc1ccccc1)CC1OC(=O)C(Cl)=C1Cl (configuration not stated) | – | – | 23.3 µM (inactive) | 17.7 µM (inactive) | 18 µM (inactive) | GI50 (LXFL 529): 15.8 µM (inactive); GI50 (XF498): 25.7 µM (inactive) |
| NCC(=O)N[C@H]1c2ccsc2/C(=N/O)[C@H]1O | – | > 100 µM (inactive) | – | – | – | – |
| CCOC(=O)c1csc(NC(=O)C(C)N2CCCCC2)n1 (configuration not stated) | – | > 100 µM (inactive) | – | – | – | – |
| CC1(C)CC(=O)c2c(nc3c4c([nH]c(-c5ccc([N+](=O)[O-])cc5)c24)CC(C)(C)C3)C1 | 56.5 µM (inactive) | 43.6 µM (inactive) | – | – | – | – |
| COc1ccc(C2=C(N)c3c(Cl)cccc3C2=O)cc1 | 26.1 µM (inactive) | 80.2 µM (inactive) | – | – | – | – |
| O=C(C1C(c2ccccc2)N1C(c1ccccc1)c1ccccc1)C1C(c2ccccc2)N1C(c1ccccc1)c1ccccc1 (configuration not stated) | 20.2 µM (inactive) | 19.8 µM (inactive) | – | – | – | – |
| N#Cc1nnn(-c2ccc(Br)cc2)c1O | > 100 µM (inactive) | > 100 µM (inactive) | – | – | – | – |
| C/C=C(\C)C(=O)OC1C2C(C)=CC(=O)C(O)C2(C)C2C3(O)OCC24C1OC(=O)C(OC(C)=O)C4C(C)C3O (configuration not stated) | – | – | 0.0811 µM (active) | 0.0375 µM (active) | 0.0375 µM (active) | GI50 (DMS-114): 0.0375 µM (active); GI50 (XF498): 0.0396 µM (active) |
| CC(=O)[C@H]1CC[C@@H]2[C@]1(C)CC=C1[C@]23C=C[C@]2(C[C@@H](O)CC[C@]12C)C(C(=O)O)C3C(=O)O (some centres not stated) | > 100 µM (inactive) | > 100 µM (inactive) | – | – | – | – |
| Cn1c(=O)c2nc3c(=O)n(C)c(=O)n(CC(N)=O)c3nc2n(C)c1=O | > 100 µM (inactive) | > 100 µM (inactive) | – | – | – | – |
| COC(=O)[C@H](Cc1ccccc1)NP(=O)(O)OCC1C=CC(n2cc(C)c(=O)[nH]c2=O)O1 (some centres not stated) | > 100 µM (inactive) | > 100 µM (inactive) | – | – | – | – |
| CC1(C)N=C(N)N=C(N)N1c1ccc(CCc2ccccc2)cc1 | – | – | 45.7 µM (inactive) | 2.84 µM (inactive) | 15.7 µM (inactive) | GI50 (DMS-114): 0.647 µM (active); GI50 (XF498): < 0.01 µM (active) |
| Cc1ccc2c(O)cc(-c3sccc3C)nc2n1 | 0.794 µM (active) | 2.48 µM (inactive) | – | – | – | – |
| OCC1OC(n2cnc3c2NC=NC[C@H]3O)C(O)C1O (some centres not stated) | – | – | 71.3 µM (inactive) | > 450 µM (inactive) | 300 µM (inactive) | GI50 (DMS-114): > 450 µM (inactive); GI50 (XF498): > 274 µM (inactive) |
| CCOC(=O)CSC(=O)NCCCl | – | – | – | – | > 100 µM (inactive) | GI50 (DMS-114): > 100 µM (inactive); GI50 (LXFL 529): > 100 µM (inactive) |
| O=C(Cc1ccccc1)Nc1nc2ccc(Cl)cc2c2nc(-c3ccco3)nn12 | 11 µM (inactive) | > 21.2 µM (inactive) | – | – | – | – |
| CCCCOC(=O)CC(CC(=O)OCCCC)(OC(C)=O)C(=O)OCCCC [ACETYLTRIBUTYL CITRATE] | > 123 µM (inactive) | > 200 µM (inactive) | – | – | – | – |
| C=C[C@@](C)(/C=C/c1ccc(O)cc1)CCC=C(C)C [BAKUCHIOL] | 20.9 µM (inactive) | 18.6 µM (inactive) | – | – | – | – |
| Cc1c2ccncc2c(C)c2c1[nH]c1ccccc12 [ELLIPTECINE] | – | – | 1.49 µM (inactive) | 0.857 µM (active) | 0.509 µM (active) | GI50 (DMS-114): 0.94 µM (active); GI50 (XF498): 1.81 µM (inactive) |
| C[C@]12CC[C@H](O)CC1=CC[C@@H]1[C@@H]2CC[C@]2(C)C(=O)CC[C@@H]12 [PRASTERONE] | 45.6 µM (inactive) | – | – | – | – | – |
| Cc1cc(C)c(/C=C2\C(=O)Nc3ccccc32)[nH]1 [SEMAXANIB] | – | > 62.1 µM (inactive) | – | – | – | – |
